The values that follow come from patent publication US9173878B2, “Brain function improving agent” (Tohoku University, priority 2012, dated 2015).

Where only a bound is given, the exact number is not on record here.

The subject of test [1] is mouse hippocampus CA1 region. The test is described as follows: Long-term potentiation of synaptic transmission (LTP), fEPSP in hippocampus slice. Type of test: cell-based. The note with it: 100 pM in artificial cerebrospinal fluid. Here is the method:
The brain of a male mouse C57BL/6 (10-12 weeks old) was sagitally sectioned, then a coronal section brain slice (400 μm) including a hippocampus CA1 region was prepared. The hippocampus slice was recovered in an artificial cerebrospinal fluid (126 mM NaCl, 5 mM KCl, 26 mM NaHCO3, 1.3 mM MgSO4-7H2O, 1.26 mM KH2PO4, 2.4 mM CaCl2-2H2O, 10 mM glucose) saturated by a 95% O2/5% CO2 gas at 34° C. for 2 hours. The hippocampus slice was transferred to a measurement chamber, and ST101 (100 pM), SAK1 (100 pM), SAK3 (100 pM) were added to the artificial cerebrospinal fluid, and perfused. Then, the Schaffer branch to be input to the hippocampus CA1 region and the commissural fibers were stimulated by stimulus electrodes, and the postsynaptic potential (fEPSP; field excitatory postsynaptic potential) in the CA1 region induced thereby was measured. After measurement, just the hippocampus CA1 region was sliced from the slice segment, and frozen for preservation at −80° C. for measurement with immunoblotting.

The test system of test [2] is olfactolectomy mouse (OBX mouse). The test is described as follows: Acetylcholine liberation in hippocampus by microdialysis. It is filed as in vivo. As to the method: The amount of acetylcholine liberated in hippocampus is measured by the microdialysis method. The set up of guide cannula and dialysis probe (AG-4; Eicom, Kyoto, Japan) was conducted by fixing the mouse to the brain stereotaxis apparatus under the condition of maintaining anesthesia by 1.5% halothane (Takeda Chemical Industries Ltd., Osaka, Japan), setting up a guide cannula to the left hippocampus (AP=+3. L=+3, V=-1.8), and inserting a dialysis probe to the guide cannula. The collection of a intracerebral Ach sample from a mouse hippocampus was performed a day after the probe set up operation. After the recovery of the mouse from the operation was confirmed, the probe was connected to a micropump (ESP-64; Eicom) under an unanesthetized state and free activity, and a Ringer's solution (1.3 mM CaCl2. 3 mM KCl, 146 mM NaCl and 1 mM MgSO4) was introduced at a flow rate of 2 μL per minute. The dialysis sample was collected every 19.5 minutes and inserted to the acetylcholine separation column using an autoinjector (EAS-20, Eicom), and a system for a trace element analysis of biological samples (HTEC-500; Eicom) was used for analysis. SAK3 was intraperitoneally administered at 40 minutes before test (at the -40 minutes point in the graph of FIG. 8). […]

Test [3] has the same test system. The test is described as follows: Y maze test in olfactolectomized (OBX) mouse. It is filed as in vivo. The conditions noted are these: 1 mg/kg administered into the abdominal, 30 minutes before test. Here is the method:
A 10 weeks old DDY male mouse (Nippon SLC, Hamamatsu, Japan) was used in the experiment. The animal was bred in an animal experiment facility in the Pharmaceutical Research Department of the Tohoku University Graduate School under a certain condition (temperature 22±2° C., 12 h: 12 h light-dark cycle) by freely providing water and a feed. Note that the handling of animals and animal experiments in the present paper was performed with an approval of Tohoku University Experimental Animal Committee and under the Tohoku University Animal Experiment Guideline.
An olfactolectomy mouse (OBX mouse) was prepared using a DDY male mouse. The olfactolectomy operation was performed under the condition of anesthesia by pentobarbital sodium (50 mg/kg i.p.; Dainippon, Osaka, Japan). […]
Y maze test: A Y maze test was performed to assess the spontaneous action amount and the spatial activity memory of a mouse. The mouse was place at the end of one of the arms in the Y maze and allowed to freely explore the maze for 8 minutes, then the positions of the arms that the mouse travelled were recorded in the order of selection. The number of times that the mouse travelled to each arm in the time of measurement was counted as total arm entries. Further, the combinations of consecutively selecting 3 different arms were counted as No. of alternation. […]

For test [4], the target named is T1, T-type calcium channel (Cav 3.1) (Homo sapiens, UniProt O43497).
T1 construct: Thermo Fisher Scientific Ltd. (vector pCMV-SPORT6); host or cells: mouse neuroblastoma cell line Neuro2A, transient transfection with Lipofectamine 2000
T1 sequence (O43497 whole entry): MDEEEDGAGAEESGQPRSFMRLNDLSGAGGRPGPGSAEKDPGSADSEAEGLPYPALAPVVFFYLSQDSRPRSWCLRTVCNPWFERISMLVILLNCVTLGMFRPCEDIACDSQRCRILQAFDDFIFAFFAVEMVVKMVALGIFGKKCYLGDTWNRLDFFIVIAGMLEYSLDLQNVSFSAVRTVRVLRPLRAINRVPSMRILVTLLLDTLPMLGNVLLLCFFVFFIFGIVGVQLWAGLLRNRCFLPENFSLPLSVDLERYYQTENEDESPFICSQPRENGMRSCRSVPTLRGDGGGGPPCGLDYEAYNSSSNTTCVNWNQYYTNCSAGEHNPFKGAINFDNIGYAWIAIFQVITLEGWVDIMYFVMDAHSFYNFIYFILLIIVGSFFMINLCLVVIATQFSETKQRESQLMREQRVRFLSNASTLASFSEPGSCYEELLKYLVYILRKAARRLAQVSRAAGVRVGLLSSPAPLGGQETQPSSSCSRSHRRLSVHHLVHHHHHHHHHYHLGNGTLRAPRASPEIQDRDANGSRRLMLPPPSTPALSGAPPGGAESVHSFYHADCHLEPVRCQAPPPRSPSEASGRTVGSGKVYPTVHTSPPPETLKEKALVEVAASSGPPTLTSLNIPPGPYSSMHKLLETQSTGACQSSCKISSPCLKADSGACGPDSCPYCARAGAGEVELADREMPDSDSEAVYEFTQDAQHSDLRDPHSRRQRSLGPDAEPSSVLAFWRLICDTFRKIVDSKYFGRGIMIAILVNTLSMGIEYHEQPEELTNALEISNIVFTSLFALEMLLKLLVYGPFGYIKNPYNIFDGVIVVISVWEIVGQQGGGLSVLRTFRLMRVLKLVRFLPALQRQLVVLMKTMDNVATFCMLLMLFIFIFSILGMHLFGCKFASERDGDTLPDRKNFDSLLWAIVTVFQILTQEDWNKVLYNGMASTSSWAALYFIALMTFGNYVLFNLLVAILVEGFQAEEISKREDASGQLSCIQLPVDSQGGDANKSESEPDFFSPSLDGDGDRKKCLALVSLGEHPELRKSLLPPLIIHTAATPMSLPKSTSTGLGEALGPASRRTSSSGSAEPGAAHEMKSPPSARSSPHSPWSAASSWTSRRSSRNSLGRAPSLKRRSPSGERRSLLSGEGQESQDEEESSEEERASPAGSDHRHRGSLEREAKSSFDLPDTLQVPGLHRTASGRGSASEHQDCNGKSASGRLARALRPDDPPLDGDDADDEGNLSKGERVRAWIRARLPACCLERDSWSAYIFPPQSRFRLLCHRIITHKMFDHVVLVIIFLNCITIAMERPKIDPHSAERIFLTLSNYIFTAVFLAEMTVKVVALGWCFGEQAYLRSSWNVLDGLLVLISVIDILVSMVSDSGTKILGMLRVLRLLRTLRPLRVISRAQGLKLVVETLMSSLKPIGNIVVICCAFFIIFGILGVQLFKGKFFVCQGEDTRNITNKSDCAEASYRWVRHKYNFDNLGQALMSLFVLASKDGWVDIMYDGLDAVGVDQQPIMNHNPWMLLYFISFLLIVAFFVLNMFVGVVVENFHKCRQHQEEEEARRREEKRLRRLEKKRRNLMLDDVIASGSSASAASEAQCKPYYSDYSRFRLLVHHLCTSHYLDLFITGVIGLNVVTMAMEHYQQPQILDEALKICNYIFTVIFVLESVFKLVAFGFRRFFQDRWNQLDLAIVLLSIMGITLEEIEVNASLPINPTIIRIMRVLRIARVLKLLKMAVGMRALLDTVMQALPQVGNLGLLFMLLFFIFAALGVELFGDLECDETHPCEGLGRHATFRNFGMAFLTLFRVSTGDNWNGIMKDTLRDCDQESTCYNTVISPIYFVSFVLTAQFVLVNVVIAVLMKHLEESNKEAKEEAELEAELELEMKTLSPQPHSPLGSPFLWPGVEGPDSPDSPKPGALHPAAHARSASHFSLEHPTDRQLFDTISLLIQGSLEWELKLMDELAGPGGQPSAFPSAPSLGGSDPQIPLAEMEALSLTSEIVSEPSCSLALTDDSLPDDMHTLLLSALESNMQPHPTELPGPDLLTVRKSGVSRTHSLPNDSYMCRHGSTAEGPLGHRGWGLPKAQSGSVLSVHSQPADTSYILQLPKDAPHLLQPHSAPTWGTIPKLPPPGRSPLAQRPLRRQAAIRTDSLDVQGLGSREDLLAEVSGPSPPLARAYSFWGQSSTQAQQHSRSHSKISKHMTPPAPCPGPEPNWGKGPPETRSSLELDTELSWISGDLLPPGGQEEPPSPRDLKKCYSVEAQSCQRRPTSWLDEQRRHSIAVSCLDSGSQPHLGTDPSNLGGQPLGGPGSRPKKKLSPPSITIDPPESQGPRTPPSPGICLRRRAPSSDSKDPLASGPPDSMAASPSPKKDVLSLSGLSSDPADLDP
In words: Calcium imaging (Fura-2) in Cav 3.1 gene-transfected Neuro2A cells. It is filed as cell-based, mouse. The note with it: for change in calcium concentration after SAK3 addition: Cav3.1 expressing cells. As to the method:
The cells of mouse neuroblastoma cell line Neuro2A were purchased from the Human Science Research Resources Bank (#IFO50081, Osaka, Japan). […] Then, the Neuro2A cells were seeded to a glass bottom dish at a concentration of 1 to 2×10^6 cell/φ35-mm dish, and cultivated for 24 hours in a standard culture medium, and the cells were transfected using Lipofectamine 2000 (Invitrogen, Carsbad, Calif., USA) and using a plasmid vector containing a T-type calcium channel (Cav 3.1) genes (serum-free culture of Lipofectamine 2000: DNA=1 μl: 1 μg, 1.5 ml). The T-type calcium channel (Cav 3.1) gene, the plasmid vector pCMV-SPORT6, and the Lipofectamine 2000 were respectively purchased from OriGene Technologies, Inc., Thermo Fisher Scientific Ltd., and Invitrogen, and the transfection was performed according to the protocol attached to Lipofectamine 2000 other than the rate adjustment of the Lipofectamine 2000 and plasmid vector. The serum-free culture was replaced with a standard culture 6 hours after transfect, and calcium imaging (calcium concentration measurement) was performed after Cav 3.1 expression was confirmed after 48 hours of culture. T-type calcium channel expressing Neuor2A cells were dispersed in a glass bottom dish, and 2.5 μM of Fura-2-AM (Sigma, St Louis, Mo., USA) was added to the dish in perfusion (Krebs-Hepes buffer; KRH), then the dish was incubated at 37° C. for 30 minutes. A Fura-2-AM-free KRH was replaced with perfusion, and the Neuro2A cells were stimulized with SAK3 (100 pM) as the intracellular calcium was measured with a fluorescent microscope, then the cells were further stimulized with nicotin (1 μM), ATP (0.1 μM), DHPG (20 μM), as necessary.

For `CCOC(=O)C1=C(N2CCCCC2)C2(CC1=O)C(=O)N=C1C(C)=CC=CN12` (stereo not shown) [SAK3], the LTP potentiation effect entry in test [1] was “a strong potentiation effect was observed”. Moreover, the “amount of acetylcholine liberated by nicotine in hippocampus” value is given as “above that of the Sham group” in test [2] (1.0 mg/kg administration group, compared with Sham group) and “increased” in test [2] (intraperitoneal, 40 minutes before test, versus group without SAK3). For the same compound, in test [3], the “improvement of cognitive dysfunction by olfactolectomy (Y maze test)” value is “almost completely improved”. The “amount of influent calcium ion induced by adding ATP” value in test [4] (ATP 0.1 μM, under the presence of SAK3 100 pM, transfected cells) is on record as “not potentiated”. Besides, the “change in calcium concentration after SAK3 addition” value is “An increase in calcium concentration was confirmed” in test [4] (SAK3 100 pM) and “no increase in calcium concentration by SAK3 was confirmed” in test [4] (SAK3 100 pM, mibefradil (10 μM) added). Moreover, the “amount of intracellular influent calcium ion induced by SAK3” value in test [4] (Cav3.1 transfected cells, SAK3 100 pM) is listed as “showed an increase in the amount of influent calcium ion”. For the same compound, the “increase in amount of influent calcium ion induced by SAK3” value in test [4] (Cav3.1 transfected cells, addition of mibefradil (10 μM)) was “nearly cancelled out”. The “amount of influent calcium ion induced by adding DHPG” value in test [4] (DHPG 20 μM, under the presence of SAK3 100 pM, transfected cells) is “not potentiated”. Moreover, in test [4] (compared with ST101), the “activation of T-type voltage dependent calcium channel relative to ST101” value is reported as ≥ 10 folds. In addition, in test [4] (nicotin 1 μM, SAK3 100 pM), the “increase of the amount of influent calcium ion induced by nicotin under the presence of SAK3, transfected cells relative to non-transfected cells” value was found to be 2 folds. In addition, the “effect of SAK3 on amount of influent calcium ion induced by nicotin” value in test [4] (nicotin 1 μM, mibefradil (10 μM) added) was “cancelled out”.
